Legend:
[1] = test system: five human cancer cell lines (HeLa, HepG2, MCF-7, SCC-15, and A549); experiment: MTS cytotoxicity assay, across the cancer cell line panel; assay type: cell-based; details: for IC50: Homo sapiens, average over the cancer cell lines, read-out: average IC50 value (antitumor potential); for anticancer / antiproliferative activity over the cell line panel, in words: MTS, Indo 5 as reference
From the text: (§1) To investigate the relationship between anticancer activity and tyrosine kinase inhibitory activity, these compounds were further evaluated for in vitro cytotoxicity against five cancer cell lines (human cervical carcinoma cell line HeLa, human breast carcinoma cell line MCF-7, human liver carcinoma cell line HepG2, human tongue carcinoma cell line SCC-15, and human lung carcinoma A549) using MTS assay. Indo 5 was also used as a reference compound.
(§2) The five types of human cancer cell lines (HeLa, HepG2, MCF-7, SCC-15, and A549) were cultured aseptically using Dulbecco’s modified Eagle’s medium (DMEM) supplemented with 10% (v/v) fetal bovine serum (FBS) and penicillin (100 units mL^−1)/streptomycin ([…]), at pH 7.2 and 5% CO2 humidified atmosphere at 37 °C. After attaining 80% confluence, the cells were trypsinized with 0.25 trypsin–EDTA and diluted with media to a fixed number of cells.
(§3) Cytotoxic activity was assessed using the standard MTS method by using triplicate assay. The cells were seeded into 96-well plates containing the medium at the density of 4000–6000 cells/mL (100 μL/well). The compounds were dissolved in DMSO to the concentration of 100 mM and diluted in a culture medium to the concentrations needed. After 24 h, the cultured cells were treated with concentrations of synthesized compounds (3.125 μM to 100 μM for tumor cells) for 48 h. After 48 h of incubation, the supernatant was replaced by fresh medium (100 μL/well) and 10 μL MTS reagent ([3-(4,5-dimethylthiazol-2-yl)-5-(3-carboxymethoxyphenyl)-2-(4-sulfophenyl)-2H-tetrazolium, inner salt]) was added to each well. The plate was further incubated for 3 h at 37 °C in 5% CO2. The optical absorbance in individual wells was determined at 492 nm using a microplate reader. The inhibition rates were calculated by the following formula: Inhibition rate (%) = (ODnegative control − ODsample)/(ODnegative control − ODblank) × 100%
(§4) IC50 was calculated using GraphPad Prism Software (GraphPad Prism 5, La Jolla, CA, USA). For each concentration, at least three wells were performed to calculate the average parameter.

tyrosine kinase = experiment: Tyrosine kinase inhibitory activity assay (self-made ELISA kit); assay type: biochemical; details: tyrosine kinase tissue extract, 37 °C 30 min
Procedure: The 16 designed compounds were first evaluated for tyrosine kinase inhibitory activity using ELISA assay. Indo 5 was used as a reference compound. The kit was self-made and is a very effective and economical method for preliminary tyrosine kinase inhibitory activity evaluation.
The tyrosine kinase inhibitory activity assay was performed as described in the literature. Details of the experimental procedures are presented in Supplementary Materials associated with this article. The IC50 was calculated using GraphPad Prism Software (GraphPad Prism 5, La Jolla, CA, USA). For each concentration, at least three wells were performed to calculate the average parameter.
100μL to each well. The plate was covered with its lid, and incubated at 4℃ overnight (10-12 hours). Then it was washed with 200μL elution buffer once, and dried at 37℃ for 2 h. After that, it was washed with 10mM PBS once, dried at room temperature, and then stored at 4℃ […]
2.1.5. Groups: Blank control: 60μL 1×tyrosine kinase buffer + 50μL 1×tyrosine kinase buffer containing ATP; Negative control: 10μL 1×tyrosine kinase buffer + 50μL 1×tyrosine kinase buffer containing tissue extract + 50μL 1×tyrosine kinase buffer containing ATP; Positive control: 10μL 1×tyrosine kinase buffer containing L029 + 50μL 1×tyrosine kinase buffer containing tissue extract + 50μL 1×tyrosine kinase buffer containing ATP; Vehicle control: 10μL 1×tyrosine kinase buffer containing DMSO + 50μL 1×tyrosine kinase buffer containing tissue extract + 50μL 1×tyrosine kinase buffer containing ATP; Compounds to be screened: 10μL 1×tyrosine kinase buffer containing compounds to be tested + 50μL 1× tyrosine kinase buffer containing tissue extract + 50μL 1×tyrosine kinase buffer containing ATP. (First, L029 and the compounds were allowed to interact with the tyrosine kinase tissue extract at room temperature for 10 min in advance, and did the same to the Blank control and the Vehicle control, then 50μL 1×tyrosine kinase buffer containing ATP was added to […]
2.1.6. Tyrosine kinase inhibitory activity assay: 1×tyrosine kinase buffer was prepared by evenly mixing 1 mL 10× tyrosine kinase buffer with 9 mL DDW. The tissue extract was diluted with 1×tyrosine kinase buffer appropriately, mixed with it gently and evenly, and placed on ice. ATP stock solution was mixed with 1×tyrosine kinase buffer at the final concentration of 3mM , and placed on ice. The microplate was added in respective wells with the groups formulated as above, covered with the lid, and incubated at 37℃ for 30 min. The microplate was washed with 200μL elution buffer and tapped until the residual buffer was removed, and this procedure was repeated for five times. To each well, 100μL antibody diluent (antibody elution buffer diluted at a ratio of 1:2000) was added. The microplate was covered with the lid, and incubated at room temperature for 30 min. OPD solution was prepared by addition of 4 mg OPD into a mixture of 4.86 mL 0.1 mol/L citric acid solution and 5.14 mL 0.2 mol/L Na2HPO4 solution, followed by addition of 50μL 30% H202 to allow for complete dissolution, and then was protected from light. The antibody solution was […]
removed. The microplate was washed with 200μL elution buffer and tapped until the residual buffer was removed, and this procedure was repeated for five times. 100μL freshly prepared OPD was added, and reacted at room temperature light tight for precisely 7 min. Negative […]
100μL 2.5 N H2SO4 was added to terminate the reaction. OD
2.1.7. Sample screening: Samples were screened preliminarily by using triplicate assay. The effect of the samples on tyrosine kinase inhibitory activity was tested, and the inhibition rate was calculated. Inhibition rate (%)=(ODnegative control – ODsample) / (ODnegative control* – ODblank) × 100%; *While calculating inhibition rate of positive drugs, ODnegative control in the equation was replaced with ODvehicle control to exclude the influence of DMSO on tyrosine kinase activity. […]
2. S. Praveen Kumar, Jiri Gut, Rita C. […]

[2] = test system: human breast carcinoma cell line MCF-7; experiment: MTS cytotoxicity assay, MCF-7; assay type: cell-based; details: for IC50: Homo sapiens, MCF7, 48 h treatment
From the text: as §1, §2, §3, §4

[3] = test system: human tongue carcinoma cell line SCC-15; experiment: MTS cytotoxicity assay, SCC-15; assay type: cell-based; details: for IC50: Homo sapiens, SCC-15, 48 h treatment
From the text: as §1, §2, §3, §4

[4] = test system: human lung carcinoma A549; experiment: MTS cytotoxicity assay, A549; assay type: cell-based; details: Homo sapiens, A549, 48 h treatment
From the text: as §1, §2, §3, §4

[5] = test system: human liver carcinoma cell line HepG2; experiment: MTS cytotoxicity assay, HepG2; assay type: cell-based; details: for IC50: Homo sapiens, HepG2, 48 h treatment
From the text: as §1, §2, §3, §4

[6] = test system: human cervical carcinoma cell line HeLa; experiment: MTS cytotoxicity assay, HeLa; assay type: cell-based; details: for IC50: Homo sapiens, HeLa, 48 h treatment
From the text: as §1, §2, §3, §4

IC50 (tyrosine kinase)	melting point	SMILES	IC50 [1]	anticancer / antiproliferative activity over the cell line panel, in words [1]	activity against the MCF-7 cell line, in words [2]	IC50 [2]	activity against the SCC-15 cell line, in words [3]	IC50 [3]	IC50 [4]	activity against the HepG2 cell line, in words [5]	IC50 [5]	IC50 [6]	activity against the HeLa cell line, in words ([6]; Indo 5 as reference)
1.34 ± 0.03 µM	195 to 196 °C	O=C1Nc2ccccc2/C1=C/[S+]([O-])Cc1ccc(Br)cc1 (stereo not shown) [Compound 6j, (Z)-3-(((4-Bromobenzyl)sulfinyl)methylene)indolin-2-one]	< 40 µM	comparable antiproliferative activity against four cancer cell lines compared with compound Indo 5	good antitumor activity	30.77 ± 0.29 µM	considerable cytotoxic activity	34.9 ± 0.34 µM	44 ± 1.89 µM	considerable cytotoxic activity	36.9 ± 0.49 µM	24.1 ± 0.52 µM	–
2.69 ± 0.29 µM	200 to 201 °C	O=C1Nc2ccc(Br)cc2/C1=C/[S+]([O-])Cc1ccccc1 (stereo not shown) [Compound 6o, (Z)-3-((Benzylsulfinyl)methylene)-5-bromoindolin-2-one]	< 40 µM	comparable antiproliferative activity against four cancer cell lines compared with compound Indo 5	good antitumor activity	32.3 ± 0.77 µM	considerable cytotoxic activity	28.6 ± 1.58 µM	54.9 ± 0.66 µM	considerable cytotoxic activity	54.4 ± 0.88 µM	18.2 ± 0.66 µM	stronger activity than Indo 5
